Consider six compounds from patent publication US20110021541A1, “INHIBITORS OF HUMAN PHOSPHATIDYL-INOSITOL 3-KINASE DELTA” (priority 2007, published 2011).

The inhibition is the relative decrease from the control value, in per cent. A higher inhibition goes with strong suppression.

T1 sequence (O00329 whole entry): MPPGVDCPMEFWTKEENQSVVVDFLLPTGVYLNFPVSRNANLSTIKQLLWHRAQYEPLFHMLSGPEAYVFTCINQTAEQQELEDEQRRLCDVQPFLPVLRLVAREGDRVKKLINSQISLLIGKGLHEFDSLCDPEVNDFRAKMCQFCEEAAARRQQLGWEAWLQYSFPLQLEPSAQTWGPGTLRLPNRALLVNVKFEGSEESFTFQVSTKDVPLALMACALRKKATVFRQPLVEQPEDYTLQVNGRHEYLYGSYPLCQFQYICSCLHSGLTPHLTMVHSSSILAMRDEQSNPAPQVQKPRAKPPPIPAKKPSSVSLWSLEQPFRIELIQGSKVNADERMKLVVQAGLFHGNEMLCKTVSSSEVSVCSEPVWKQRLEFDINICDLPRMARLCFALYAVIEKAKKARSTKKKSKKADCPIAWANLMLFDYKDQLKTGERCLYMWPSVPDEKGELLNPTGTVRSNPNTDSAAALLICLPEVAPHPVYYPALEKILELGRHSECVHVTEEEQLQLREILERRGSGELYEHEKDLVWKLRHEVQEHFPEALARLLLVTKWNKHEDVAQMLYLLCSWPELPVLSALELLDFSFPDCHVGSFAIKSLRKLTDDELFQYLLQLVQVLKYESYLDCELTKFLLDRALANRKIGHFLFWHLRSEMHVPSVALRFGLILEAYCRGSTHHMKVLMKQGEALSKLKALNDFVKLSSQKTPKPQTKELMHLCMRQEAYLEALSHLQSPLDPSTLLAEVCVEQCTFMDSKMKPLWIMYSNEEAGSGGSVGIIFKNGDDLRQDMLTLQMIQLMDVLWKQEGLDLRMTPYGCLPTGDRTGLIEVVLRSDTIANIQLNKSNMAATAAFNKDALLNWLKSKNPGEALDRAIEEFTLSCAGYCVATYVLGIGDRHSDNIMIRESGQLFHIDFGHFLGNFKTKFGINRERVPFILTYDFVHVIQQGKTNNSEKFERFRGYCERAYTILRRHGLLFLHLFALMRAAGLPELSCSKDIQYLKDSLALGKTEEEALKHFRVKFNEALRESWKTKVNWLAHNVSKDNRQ
T1 sequence (P27986 whole entry partner): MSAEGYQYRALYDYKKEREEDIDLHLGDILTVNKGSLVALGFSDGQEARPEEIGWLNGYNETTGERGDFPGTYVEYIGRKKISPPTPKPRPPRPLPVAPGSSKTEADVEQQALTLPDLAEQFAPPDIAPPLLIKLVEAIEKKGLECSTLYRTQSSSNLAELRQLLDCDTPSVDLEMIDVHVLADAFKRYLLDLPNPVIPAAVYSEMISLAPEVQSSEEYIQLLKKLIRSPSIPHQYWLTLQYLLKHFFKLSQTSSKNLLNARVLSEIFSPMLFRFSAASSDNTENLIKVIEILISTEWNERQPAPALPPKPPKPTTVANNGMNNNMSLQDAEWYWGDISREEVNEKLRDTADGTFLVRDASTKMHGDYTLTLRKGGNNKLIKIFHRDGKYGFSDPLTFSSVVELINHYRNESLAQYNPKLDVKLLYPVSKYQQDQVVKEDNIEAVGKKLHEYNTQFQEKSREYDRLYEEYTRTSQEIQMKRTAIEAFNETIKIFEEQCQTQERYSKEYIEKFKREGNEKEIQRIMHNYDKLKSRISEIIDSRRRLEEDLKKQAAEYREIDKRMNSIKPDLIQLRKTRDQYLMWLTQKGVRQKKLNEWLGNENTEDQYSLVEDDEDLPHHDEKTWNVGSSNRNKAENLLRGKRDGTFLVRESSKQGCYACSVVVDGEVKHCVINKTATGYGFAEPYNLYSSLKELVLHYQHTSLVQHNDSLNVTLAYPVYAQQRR

One assay addresses T1, PI3Kδ (Homo sapiens, UniProt O00329).
T1 construct: FLAG; His tag (vector pFastbac HTb); made in house; host or cells: Sf21 insect cells (baculovirus, BAC-TO-BAC HT)
Nature of the assay: PI3Kδ biochemical assay (HTS and selectivity assay protocol, [32P]ATP / PIP2 liposomes). Conditions: Table 1, in vitro activity data for selected compounds; read-out: In Vitro I-50. As for the experimental part:
The 3× substrate for the HTS contained 0.6 mM Na2ATP, 0.10 mCi/mL γ-[^32P]ATP (NEN, Pittsburgh, Pa.), 6 μM PIP2/PS liposomes (Avanti Polar Lipids, Inc., […].), in 20 mM HEPES, pH 7.4.
Subsequent selectivity assays were done similarly using the same 3× substrate stocks except they contained 0.05 mCi/mL γ[^32P]ATP and 3 mM PIP2. Subsequent selectivity assays also used the same 3× enzyme stocks, except they now contained 3 nM of any given PI3K isoform.
For all selectivity assays, the test compounds were weighed out and dissolved into 10-50 mM stocks in 100% DMSO (depending on their respective solubilities) and stored at −20° C. Compounds were thawed (to room temperature or 37° C.), diluted to 300 μM in water from which a 3-fold dilution series into water was done. From these dilutions, 20 μL was added into the assay wells alongside water blanks used for the enzyme (positive) control and the no enzyme (background) control.
For the compound `CC(c1nc2c(c(Br)nn2C)c(=O)n1-c1ccccc1)n1cnc2c(N)ncnc21` (stereo not drawn) [Compound 1, 6-[1-(6-Amino-purin-9-yl)-ethyl]-3-bromo-1-methyl-5-phenyl-1,5-dihydro-pyrazolo[3,4-d]pyrimidin-4-one], the IC50 was determined as 0.665 µM.

With `CC(Sc1ncnc2[nH]cnc12)c1nc2c(c(Br)nn2C)c(=O)n1-c1ccccc1` (stereo not drawn) [Compound 2, 3-Bromo-1-methyl-5-phenyl-6-[1-(9H-purin-6-ylsulfanyl)-ethyl]-1,5-dihydro-pyrazolo[3,4-d]pyrimidin-4-one], the IC50 is 6 µM. Take `Cc1noc2nc(CSc3ncnc4[nH]cnc34)n(-c3ccccc3)c(=O)c12` [Compound 4, 3-Methyl-5-phenyl-6-(9H-purin-6-ylsulfanylmethyl)-5H-isoxazolo[5,4-d]pyrimidin-4-one]: the IC50 came to 1.2 µM. With `Cc1noc2nc(Cn3cnc4c(N)ncnc43)n(-c3ccccc3)c(=O)c12` [Compound 5, 6-(6-Amino-purin-9-ylmethyl)-3-methyl-5-phenyl-5H-is oxazolo[5,4-d]pyrimidin-4-one], the IC50 was found to be 6.4 µM. Still for that read-out and setting: in the case of `CC(c1nc2cccnc2c(=O)n1-c1ccccc1)n1cnc2c(N)ncnc21` (stereo not drawn) [Compound 11] it was 0.665 µM.

The next assay relates to basophils. As to the kind of experiment: Basophil histamine release assay. Type of assay: cell-based. Conditions: highest concentration (10,000 nM). As for the experimental part: Assessment of the effect of a compound of the invention on basophil function is tested using a conventional histamine release assay, generally in accordance with the method described in Miura et al., J Immunol, 162:4198-206 (1999). Briefly, enriched basophils are preincubated with test compounds at several concentrations from 0.1 nM to 1,000 nM for 10 min at 37° C. Then, polyclonal goat antihuman IgE (0.1 μg/mL) or fMLP is added, and allowed to incubate for an additional 30 min Histamine released into the supernatant is measured using an automated fluorometric technique.
Regarding `O=c1cc(N2CCOCC2)oc2c(-c3ccccc3)cccc12` [LY294002], the inhibition at 10 µM is approximately 100%.
